# Entries after “also recorded” stand apart in the source; their conditions may differ.
# Experiments:
# cancer patients = conditions: clinical trials; cited from earlier work
# nuclear deacetylase(s) = conditions: cited from earlier work
# B16 melanoma = conditions: cited from earlier work
# [1] = tested on: human neuroblastoma cell lines; test: Clonogenicity across the neuroblastoma cell lines (summary); assay type: cell-based
# Protocol: (§1) Inhibition of cancer cell growth in agar culture--clonogenicity was tested using cell lines as follows:
# (§2) Cells were harvested, washed in complete media, and counted.
# (§3) After overnight culture, AB or α-methyl-4-(2-methylpropyl)-benzeneacetyloxymethyl butyrate was added at the indicated concentration. The control cells received media alone.
# [2] = tested on: human pancreatic, ovarian, breast carcinoma and melanoma cell lines; test: Inhibition of cancer cell growth, SRB method (summary over cell lines); assay type: cell-based; conditions: compared with AB
# Protocol: (§4) Inhibition of cancer cell growth was measured by the sulforhodamine B (SRB) method as described by Monks et al., J. Nat. Canc. Inst., (1991), 83: 757-766, incorporated herein in its entirety. The SRB assay is recognized by the National Institute for Cancer (NCI) as a reliable screen for anticancer drugs and is used by the NCI for this purpose. […] (FIGS. 3A-3D).
# [3] = In vitro stability in human blood; assay type: in vitro ADME; conditions: whole human blood, radiolabelled, read-out: calculated half time
# Protocol: Radiolabelled Compound 1 (5 μCi) was added to 1 mL of whole human blood and allowed to stand for various times. The samples were quenched with acetonitrile and prepared as previously described.
# OVCAR-5 = test: Inhibition of cancer cell growth, sulforhodamine B (SRB) method; assay type: cell-based; conditions: Homo sapiens
# Protocol: as §4
# CFPAC = test: as above; assay type: cell-based; conditions: Homo sapiens
# Protocol: as §4
# LOX IMVI = test: as above; assay type: cell-based; conditions: Homo sapiens
# Protocol: as §4
# MCF7 = test: as above; assay type: cell-based; conditions: Homo sapiens
# Protocol: as §4
# SK-N-SH = test: Clonogenicity in soft agar (growth inhibition); assay type: cell-based, human
# Protocol: as §1, §2, §3
# LA1-5S = test: Clonogenicity in soft agar (growth inhibition); assay type: cell-based, human
# Protocol: as §1, §2, §3
# SMS-KAN = test: Clonogenicity in soft agar (growth inhibition); assay type: cell-based, human
# Protocol: as §1, §2, §3
# SMS-KCN = test: Clonogenicity in soft agar (growth inhibition); assay type: cell-based, human
# Protocol: as §1, §2, §3
# NGP = test: Clonogenicity in soft agar (growth inhibition); assay type: cell-based, human
# Protocol: as §1, §2, §3
# SK-N-MC = test: Clonogenicity in soft agar (growth inhibition); assay type: cell-based, human
# Protocol: as §1, §2, §3
# NBAS-5 = test: Clonogenicity in soft agar (growth inhibition); assay type: cell-based, human
# Protocol: as §1, §2, §3
# NBL-W-N = test: Clonogenicity in soft agar (growth inhibition); assay type: cell-based, human
# Protocol: as §1, §2, §3
# NBL-S = test: Clonogenicity in soft agar (growth inhibition); assay type: cell-based, human
# Protocol: as §1, §2, §3
# IMR-32 = test: Clonogenicity in soft agar (growth inhibition); assay type: cell-based, human
# Protocol: as §1, §2, §3
# [4] = tested on: human colon carcinoma, leukemia and retinoblastoma cell lines; conditions: in vitro; cited from earlier work
compound,measurement,setting,value
"CCCC(=O)O [BA, Butyric acid]",efficacy in cancer patients,cancer patients,minimal or transient efficacy
same,effect on nuclear deacetylase(s),nuclear deacetylase(s),"inhibition of nuclear deacetylase(s), resulting in hyperacetylation of histones H3 and H4"
same,oncogene expression,B16 melanoma,decrease in the expression of c-myc and H-ras oncogenes in B16 melanoma
"CCCC(=O)OCOC(=O)C(C)c1ccc(CC(C)C)cc1 (stereo not drawn) [Compound 1, α-methyl-4-(2-methylpropyl)-benzeneacetyloxymethyl butyrate]",inhibition of clonogenicity (in words),[1],dose-dependent manner
same,sensitivity / potency relative to AB (in words),[1]; compared with AB,mostly an order of magnitude more sensitive; also recorded: significantly more potent tumor cell clonogenicity inhibitor than AB
same,"ratio between the IC50 of AB/Compound 1, ""maiden"" value",[1]; over the cell lines,16
same,"ratio between the IC50 of AB/Compound 1, range",[1]; over the cell lines,7-63 fold
same,"ratio between the IC90 of AB/Compound 1, ""maiden"" value",[1]; over the cell lines,32
same,"ratio between the IC90 of AB/Compound 1, range",[1]; over the cell lines,7-434
same,greater activity than that of AB,[2],at least 100 fold
same,half-life,[3],~20.8 min
same,inhibition at 31.25 pM,"OVCAR-5; OVCAR-5, dosage 0.03125 nM",0%
same,inhibition at 62.5 pM,"OVCAR-5; OVCAR-5, dosage 0.06250 nM",0.3%
same,inhibition at 0.000125 µM,"OVCAR-5; OVCAR-5, dosage 0.12500 nM",0.5%
same,inhibition at 0.00025 µM,"OVCAR-5; OVCAR-5, dosage 0.25000 nM",0%
same,inhibition at 0.0005 µM,"OVCAR-5; OVCAR-5, dosage 0.50000 nM",0.9%
same,inhibition at 0.001 µM,"OVCAR-5; OVCAR-5, dosage 1.00000 nM",39.7%
same,inhibition at 0.002 µM,"OVCAR-5; OVCAR-5, dosage 2.00000 nM",99.8%
same,inhibition at 0.004 µM,"OVCAR-5; OVCAR-5, dosage 4.00000 nM",95.1%
same,inhibition at 31.25 pM,CFPAC; dosage 0.03125 nM,0%
same,inhibition at 62.5 pM,CFPAC; dosage 0.06250 nM,0.1%
same,inhibition at 0.000125 µM,CFPAC; dosage 0.12500 nM,1.1%
same,inhibition at 0.00025 µM,CFPAC; dosage 0.25000 nM,0%
same,inhibition at 0.0005 µM,CFPAC; dosage 0.50000 nM,93.3%
same,inhibition at 0.001 µM,CFPAC; dosage 1.00000 nM,94.9%
same,inhibition at 0.002 µM,CFPAC; dosage 2.00000 nM,96%
same,inhibition at 0.004 µM,CFPAC; dosage 4.00000 nM,97.4%
same,inhibition at 31.25 pM,LOX IMVI; dosage 0.03125 nM,0%
same,inhibition at 62.5 pM,LOX IMVI; dosage 0.06250 nM,0.1%
same,inhibition at 0.000125 µM,LOX IMVI; dosage 0.12500 nM,1.5%
same,inhibition at 0.00025 µM,LOX IMVI; dosage 0.25000 nM,0%
same,inhibition at 0.001 µM,LOX IMVI; dosage 1.00000 nM,94.9%
same,inhibition at 0.002 µM,LOX IMVI; dosage 2.00000 nM,96%
same,inhibition at 0.004 µM,LOX IMVI; dosage 4.00000 nM,97.4%
same,inhibition at 31.25 pM,"MCF7; MCF7, dosage 0.03125 nM",0%
same,inhibition at 62.5 pM,"MCF7; MCF7, dosage 0.06250 nM",0%
same,inhibition at 0.000125 µM,"MCF7; MCF7, dosage 0.12500 nM",0%
same,inhibition at 0.00025 µM,"MCF7; MCF7, dosage 0.25000 nM",1.1%
same,inhibition at 0.0005 µM,"MCF7; MCF7, dosage 0.50000 nM",57.8%
same,inhibition at 0.001 µM,"MCF7; MCF7, dosage 1.00000 nM",99.3%
same,inhibition at 0.002 µM,"MCF7; MCF7, dosage 2.00000 nM",98.9%
same,inhibition at 0.004 µM,"MCF7; MCF7, dosage 4.00000 nM",98.7%
same,AB/Compound 1 (IC50 ratio),SK-N-SH,63.37
same,AB/Compound 1 (IC90 ratio),SK-N-SH,87
same,IC50,SK-N-SH; Homo sapiens,16 µM
same,IC90,SK-N-SH; Homo sapiens,39 µM
same,activity at 10 µM,"SK-N-SH; Homo sapiens, 10 μM, read-out: clones relative to media-treated control cultures",66%
same,activity at 20 µM,"SK-N-SH; Homo sapiens, 20 μM, read-out: clones relative to media-treated control cultures",50%
same,activity at 50 µM,"SK-N-SH; Homo sapiens, 50 μM, read-out: clones relative to media-treated control cultures",5%
same,activity at 100 µM,"SK-N-SH; Homo sapiens, 100 μM, read-out: clones relative to media-treated control cultures",1%
same,activity at 250 µM,"SK-N-SH; Homo sapiens, 250 μM, read-out: clones relative to media-treated control cultures",0%
same,AB/Compound 1 (IC50 ratio),LA1-5S,56
same,AB/Compound 1 (IC90 ratio),LA1-5S,31.8
same,IC50,LA1-5S; Homo sapiens,29 µM
same,IC90,LA1-5S; Homo sapiens,84 µM
same,AB/Compound 1 (IC50 ratio),SMS-KAN,14.7
same,AB/Compound 1 (IC90 ratio),SMS-KAN,7.2
same,IC50,SMS-KAN; Homo sapiens,77 µM
same,IC90,SMS-KAN; Homo sapiens,289 µM
same,AB/Compound 1 (IC50 ratio),SMS-KCN,15.86
same,IC50,SMS-KCN; Homo sapiens,118 µM
same,AB/Compound 1 (IC50 ratio),NGP,67.9
same,AB/Compound 1 (IC90 ratio),NGP,18.46
same,IC50,NGP; Homo sapiens,15 µM
same,IC90,NGP; Homo sapiens,87 µM
same,AB/Compound 1 (IC50 ratio),SK-N-MC,9
same,AB/Compound 1 (IC90 ratio),SK-N-MC,887
same,IC50,SK-N-MC; Homo sapiens,24 µM
same,IC90,SK-N-MC; Homo sapiens,148 µM
same,IC50,"NBAS-5; Homo sapiens, NBAS-5",15 µM
same,IC90,"NBAS-5; Homo sapiens, NBAS-5",30 µM
same,activity at 10 µM,"NBAS-5; Homo sapiens, NBAS-5, 10 μM, read-out: clones relative to media-treated control cultures",76 ± 7%
same,activity at 20 µM,"NBAS-5; Homo sapiens, NBAS-5, 20 μM, read-out: clones relative to media-treated control cultures",27 ± 15%
same,activity at 50 µM,"NBAS-5; Homo sapiens, NBAS-5, 50 μM, read-out: clones relative to media-treated control cultures",3%
same,activity at 100 µM,"NBAS-5; Homo sapiens, NBAS-5, 100 μM, read-out: clones relative to media-treated control cultures",0%
same,activity at 250 µM,"NBAS-5; Homo sapiens, NBAS-5, 250 μM, read-out: clones relative to media-treated control cultures",0%
same,AB/Compound 1 (IC50 ratio),NBAS-5; NBAS-5,55.53
same,AB/Compound 1 (IC90 ratio),NBAS-5; NBAS-5,434
same,AB/Compound 1 (IC50 ratio),NBL-W-N,10.6
same,AB/Compound 1 (IC90 ratio),NBL-W-N,22.9
same,IC50,NBL-W-N; Homo sapiens,46 µM
same,IC90,NBL-W-N; Homo sapiens,134 µM
same,AB/Compound 1 (IC50 ratio),NBL-S,29.2
same,AB/Compound 1 (IC90 ratio),NBL-S,32.8
same,IC50,NBL-S; Homo sapiens,24 µM
same,IC90,NBL-S; Homo sapiens,61 µM
same,IC50,"IMR-32; Homo sapiens, IMR-32",15 µM
same,IC90,"IMR-32; Homo sapiens, IMR-32",32 µM
same,activity at 10 µM,"IMR-32; Homo sapiens, IMR-32, 10 μM, read-out: clones relative to media-treated control cultures",71 ± 10%
same,activity at 20 µM,"IMR-32; Homo sapiens, IMR-32, 20 μM, read-out: clones relative to media-treated control cultures",46 ± 8%
same,activity at 50 µM,"IMR-32; Homo sapiens, IMR-32, 50 μM, read-out: clones relative to media-treated control cultures",3 ± 1%
same,activity at 100 µM,"IMR-32; Homo sapiens, IMR-32, 100 μM, read-out: clones relative to media-treated control cultures",0%
same,activity at 250 µM,"IMR-32; Homo sapiens, IMR-32, 250 μM, read-out: clones relative to media-treated control cultures",0%
same,AB/Compound 1 (IC50 ratio),IMR-32; IMR-32,59
same,AB/Compound 1 (IC90 ratio),IMR-32; IMR-32,111437
"CCCC(=O)[O-].[Na+] [SB, sodium butyrate]",apoptosis,[4],"produce apoptosis in vitro in human colon carcinoma, leukemia and retinoblastoma cell lines"

# — patent US6110955A, “Metabolically stabilized oxyalkylene esters and uses thereof” (Beacon Laboratories, Inc., priority 1997, dated 2000)
